Source: ChEMBL document CHEMBL4311957, “Recent advances in natural antifungal flavonoids and their derivatives” (Bioorg Med Chem Lett, 2019)
In brackets after ≈: the same amount, converted by molar mass.

Experiments:
Candida albicans [1] = test: Antifungal activity against Candida albicans ATCC 90028 after 18 hrs by two-fold microdilution method; assay type: functional; settings: ATCC 90028, 18 h
Candida parapsilosis [2] = test: Antifungal activity against Candida parapsilosis ATCC 22019 after 18 hrs by two-fold microdilution method; assay type: functional; settings: Lodderomyces parapsilosis, ATCC 22019, 18 h
Nakaseomyces glabratus = test: Antifungal activity against Candida glabrata ATCC 90030 after 18 hrs by two-fold microdilution method; assay type: functional; settings: ATCC 90030, 18 h
Trichophyton = test: Antifungal activity against Trichophyton; assay type: functional
Candida albicans [3] = test: Antifungal activity against Candida albicans; assay type: functional, organism-based
Cryptococcus neoformans [4] = test: Fungicidal activity against Cryptococcus neoformans clinical isolate after 48 hrs; assay type: functional
[5] = tested on: Trichophyton mentagrophytes; test: Fungicidal activity against Trichophyton mentagrophytes ATCC 9972 after 48 hrs; assay type: functional; settings: ATCC 9972, 48 h
Trichophyton rubrum [6] = test: Fungicidal activity against Trichophyton rubrum CCC 110 after 48 hrs; assay type: functional; settings: CCC 110, 48 h
Aspergillus niger = test: Fungicidal activity against Aspergillus niger ATCC 9029 after 48 hrs; assay type: functional; settings: ATCC 9029, 48 h
Cryptococcus neoformans [7] = test: Fungicidal activity against Cryptococcus neoformans ATCC 32264 after 48 hrs; assay type: functional; settings: ATCC 32264, 48 h
Candida albicans [8] = test: Fungicidal activity against Candida albicans ATCC 10231 after 48 hrs; assay type: functional; settings: ATCC 10231, 48 h
Aspergillus fumigatus = test: Fungicidal activity against Aspergillus fumigatus ATTC 26934 after 48 hrs; assay type: functional; settings: ATTC 26934, 48 h
Saccharomyces cerevisiae = test: Fungicidal activity against Saccharomyces cerevisiae ATCC 9763 after 48 hrs; assay type: functional; settings: ATCC 9763, 48 h
Nannizzia gypsea = test: Fungicidal activity against Microsporum gypseum CCC 115 after 48 hrs; assay type: functional; settings: CCC 115, 48 h
Aspergillus flavus = test: Fungicidal activity against Aspergillus flavus ATCC 9170 after 48 hrs; assay type: functional; settings: ATCC 9170, 48 h
Cryptococcus neoformans [9] = test: Antifungal activity against Cryptococcus neoformans ATCC 90112 after 48 hrs by CLSI-based method; assay type: functional; settings: ATCC 90112, 48 h
Candida albicans [10] = test: Synergistic antifungal activity against Candida albicans after 24 hrs in presence of Miconazole by checkerboard method; assay type: functional, organism-based
Trichophyton rubrum [11] = test: Antifungal activity against Trichophyton rubrum KCTC 6345 after 12 to 18 hrs by ELISA; assay type: functional
Candida parapsilosis [12] = test: Antifungal activity against Candida parapsilosis ATCC 22019 after 12 to 18 hrs by ELISA; assay type: functional; settings: Lodderomyces parapsilosis
Candida albicans [13] = test: Antifungal activity against Candida albicans ATCC10231 at 50 ug/ml relative to control; assay type: functional; settings: ATCC 10231
Trichosporon beigelii = test: Antifungal activity against Trichosporon beigelii KCTC 7707 after 12 to 18 hrs by ELISA; assay type: functional
Candida albicans [14] = test: Antifungal activity against Candida albicans ATCC10231; assay type: functional; settings: ATCC 10231
Candida albicans [15] = test: Antifungal activity against Candida albicans ATCC 90028 after 12 to 18 hrs by ELISA; assay type: functional
Malassezia furfur = test: Antifungal activity against Malassezia furfur KCTC 7744 after 12 to 18 hrs by ELISA; assay type: functional

CC(C)=CCc1c(O)cc(O)c2c(=O)cc(-c3ccc(O)cc3)oc12
MIC (Candida albicans [1]): 15.6 µg/mL (≈ 46.2 µM)
MIC (Candida parapsilosis [2]): 15.6 µg/mL (≈ 46.2 µM)
MIC (Nakaseomyces glabratus): 15.6 µg/mL (≈ 46.2 µM)

Cc1c(O)c2c(c3c1OC(C)(C)C=C3)O[C@H](c1ccc(O)c(O)c1)CC2=O
MIC (Trichophyton): 1.95 µg/mL (≈ 5.29 µM)
MIC (Candida albicans [3]): 1.96 µg/mL (≈ 5.32 µM)

Cc1ccc(C(=O)/C=C/c2ccc(O)c(OCCCN(C)C)c2)cc1
MFC (Cryptococcus neoformans [4]): 62.5 µg/mL (≈ 184 µM)
MFC [5]: 62.5 µg/mL (≈ 184 µM)
MFC (Trichophyton rubrum [6]): 62.5 µg/mL (≈ 184 µM)
MFC (Aspergillus niger): 62.5 µg/mL (≈ 184 µM)
MFC (Cryptococcus neoformans [7]): 62.5 µg/mL (≈ 184 µM)
MFC (Candida albicans [8]): 62.5 µg/mL (≈ 184 µM)
MFC (Aspergillus fumigatus): 62.5 µg/mL (≈ 184 µM)
MFC (Saccharomyces cerevisiae): 62.5 µg/mL (≈ 184 µM)
MFC (Nannizzia gypsea): 62.5 µg/mL (≈ 184 µM)
MFC (Aspergillus flavus): 62.5 µg/mL (≈ 184 µM)

CN(C)CCCOc1cc(/C=C/C(=O)c2ccc(Cl)cc2)ccc1O
MFC (Cryptococcus neoformans [4]): 31.2 µg/mL (≈ 86.8 µM)
MFC [5]: 31.2 µg/mL (≈ 86.8 µM)
MFC (Trichophyton rubrum [6]): 31.2 µg/mL (≈ 86.8 µM)
MFC (Aspergillus niger): 31.2 µg/mL (≈ 86.8 µM)
MFC (Cryptococcus neoformans [7]): 31.2 µg/mL (≈ 86.8 µM)
MFC (Candida albicans [8]): 31.2 µg/mL (≈ 86.8 µM)
MFC (Aspergillus fumigatus): 31.2 µg/mL (≈ 86.8 µM)
MFC (Saccharomyces cerevisiae): 31.2 µg/mL (≈ 86.8 µM)
MFC (Nannizzia gypsea): 31.2 µg/mL (≈ 86.8 µM)
MFC (Aspergillus flavus): 31.2 µg/mL (≈ 86.8 µM)

C[C@@H]1[C@H](O)[C@@H](C)/C=C/C=C/C=C/C=C/C=C/C=C/C=C/[C@H](O[C@@H]2O[C@H](C)[C@@H](O)[C@H](N)[C@@H]2O)C[C@@H]2O[C@](O)(C[C@@H](O)C[C@@H](O)[C@H](O)CC[C@@H](O)C[C@@H](O)CC(=O)O[C@H]1C)C[C@H](O)[C@H]2C(=O)O [AMPHOTERICIN B]
MIC (Cryptococcus neoformans [9]): 0.03 µg/mL (≈ 0.0325 µM)

COc1ccc(-c2cc(=O)c3c(O)cc(OC)cc3o2)cc1 [APIGENIN DIMETHYLETHER]
IC50 (Candida albicans [10]): 51.6 µg/mL

O=c1cc(-c2ccc(O)cc2)oc2cc(O)cc(O)c12 [APIGENIN]
MIC (Trichophyton rubrum [11]): 5 µg/mL (≈ 18.5 µM)
MIC (Candida parapsilosis [12]): 5 µg/mL (≈ 18.5 µM)
inhibition at 50 µg/mL (Candida albicans [13]): 99.8%
MIC (Trichosporon beigelii): 5 µg/mL (≈ 18.5 µM)
MIC (Candida albicans [14]): 125 µg/mL (≈ 463 µM)
MIC (Candida albicans [15]): 5 µg/mL (≈ 18.5 µM)
MIC (Malassezia furfur): 5 µg/mL (≈ 18.5 µM)
